Assay results: patent US20230263822A1, “MODULATION OF FACTOR 11 EXPRESSION” (Ionis Pharmaceuticals, Inc., priority 2008, published 2023)

Test: Hematology assays in cynomolgus monkeys (Example 45)
Assay type: in vivo
Details: for MCH / MCHC / MCV / RBC count / WBC count / hematocrit / hemoglobin: escalating dose regimen
Procedure, shortened: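 Cynomolgus monkeys (2 male, 3 female per group) dosed subcutaneously with antisense oligonucleotide or PBS, escalating 5, 10, then 25 mg/kg two to three times weekly over 12 weeks; one chronic group held at 10 mg/kg from week 4. Blood sampled weekly; necropsy on day 85.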

In the case of “ISIS 416864: MOE gapmer, nucleobases 1275 to 1318 of SEQ ID NO: 1 (Table 8) (antisense GGCAGCGGACGGCATTGGTG; MOE gapmer, wing and gap sizes not given here)”, the MCH (Day 64) is reported as 23 pg, the MCH (Day 71) is reported as 23 pg and the MCH (Day 78) is reported as 23 pg. The MCH (Day 85) was 23 pg, the basophils (day 8) was 0.2% and the eosinophils (day 8) was 0.7%. The lymphocytes (day 8) was 45%, the monocytes (day 8) was 2.1% and the neutrophils (day 8) was 52%. For the same substance, the platelet count (day 8) was 438000 µL⁻¹, the reticulocytes (day 8) was 0.8% and the MCH (day 8) was 23 pg. It also gave an MCHC (day 8) of 29 g/dL, an MCV (day 8) of 78 fL and an RBC count (day 8) of 5.7e+06 µL⁻¹. The WBC count (day 8) was 11000 µL⁻¹, the hematocrit (day 8) was 44% and the hemoglobin (day 8) was 12.7 g/dL. For the same substance, the basophils (day 15) was 0.2%, the eosinophils (day 15) was 0.5% and the lymphocytes (day 15) was 38%. It also gave a monocytes (day 15) of 2.4%, a neutrophils (day 15) of 59% and a platelet count (day 15) of 439000 µL⁻¹. It also gave a reticulocytes (day 15) of 0.8%, an MCH (day 15) of 23 pg and an MCHC (day 15) of 30 g/dL. The MCV (day 15) was 74 fL, the RBC count (day 15) was 5.7e+06 µL⁻¹ and the WBC count (day 15) was 10000 µL⁻¹. It also gave a hematocrit (day 15) of 42%, a hemoglobin (day 15) of 12.8 g/dL and a basophils (day 22) of 0.2%. The eosinophils (day 22) was 0.9%, the lymphocytes (day 22) was 37% and the monocytes (day 22) was 2.8%. The neutrophils (day 22) was 59%, the platelet count (day 22) was 364000 µL⁻¹ and the reticulocytes (day 22) was 0.9%. For the same substance, the MCH (day 22) was 23 pg, the MCHC (day 22) was 29 g/dL and the MCV (day 22) was 79 fL. The RBC count (day 22) was 5.3e+06 µL⁻¹, the WBC count (day 22) was 10000 µL⁻¹ and the hematocrit (day 22) was 42%. It also gave a hemoglobin (day 22) of 12.1 g/dL, a basophils (day 29) of 0.3% and an eosinophils (day 29) of 0.9%. For the same substance, the lymphocytes (day 29) was 51%, the monocytes (day 29) was 3.4% and the neutrophils (day 29) was 44%. It also gave a platelet count (day 29) of 397000 µL⁻¹, a reticulocytes (day 29) of 1.3% and an MCH (day 29) of 23 pg. For the same substance, the MCHC (day 29) was 29 g/dL, the MCV (day 29) was 80 fL and the RBC count (day 29) was 5.3e+06 µL⁻¹. It also gave a WBC count (day 29) of 10000 µL⁻¹, a hematocrit (day 29) of 43% and a hemoglobin (day 29) of 12.1 g/dL. It also gave a basophils (day 36) of 0.3%, an eosinophils (day 36) of 0.6% and a lymphocytes (day 36) of 38%. For the same substance, the monocytes (day 36) was 2.3%, the neutrophils (day 36) was 58% and the platelet count (day 36) was 428000 µL⁻¹. It also gave a reticulocytes (day 36) of 1.3%, an MCH (day 36) of 23 pg and an MCHC (day 36) of 30 g/dL. It also gave an MCV (day 36) of 76 fL, an RBC count (day 36) of 5.6e+06 µL⁻¹ and a WBC count (day 36) of 10000 µL⁻¹. It also gave a hematocrit (day 36) of 42%, a hemoglobin (day 36) of 12.5 g/dL and a basophils (day 43) of 0.4%. For the same substance, the eosinophils (day 43) was 0.6%, the lymphocytes (day 43) was 39% and the monocytes (day 43) was 2.1%. It also gave a neutrophils (day 43) of 57%, a platelet count (day 43) of 351000 µL⁻¹ and a reticulocytes (day 43) of 1.1%. It also gave an MCH (day 43) of 22 pg, an MCHC (day 43) of 29 g/dL and an MCV (day 43) of 77 fL. It also gave an RBC count (day 43) of 5.5e+06 µL⁻¹, a WBC count (day 43) of 10000 µL⁻¹ and a hematocrit (day 43) of 42%. It also gave a hemoglobin (day 43) of 12.2 g/dL, a basophils (day 50) of 0.4% and an eosinophils (day 50) of 0.7%. For the same substance, the lymphocytes (day 50) was 46%, the monocytes (day 50) was 2.9% and the neutrophils (day 50) was 49%. It also gave a platelet count (day 50) of 419000 µL⁻¹, a reticulocytes (day 50) of 1.3% and an MCH (day 50) of 22 pg. It also gave an MCHC (day 50) of 28 g/dL, an MCV (day 50) of 79 fL and an RBC count (day 50) of 5.6e+06 µL⁻¹. It also gave a WBC count (day 50) of 12000 µL⁻¹, a hematocrit (day 50) of 44% and a hemoglobin (day 50) of 12.1 g/dL. It also gave a basophils (day 57) of 0.3%, an eosinophils (day 57) of 0.4% and a lymphocytes (day 57) of 39%. The monocytes (day 57) was 2.4%, the neutrophils (day 57) was 57% and the platelet count (day 57) was 409000 µL⁻¹. For the same substance, the reticulocytes (day 57) was 1.0%, the MCH (day 57) was 23 pg and the MCHC (day 57) was 29 g/dL. For the same substance, the MCV (day 57) was 77 fL, the RBC count (day 57) was 5.5e+06 µL⁻¹ and the WBC count (day 57) was 12000 µL⁻¹. The hematocrit (day 57) was 42%, the hemoglobin (day 57) was 12.3 g/dL and the basophils (day 64) was 0.4%. For the same substance, the eosinophils (day 64) was 0.7%, the lymphocytes (day 64) was 46% and the monocytes (day 64) was 2.8%. For the same substance, the neutrophils (day 64) was 49%, the platelet count (day 64) was 383000 µL⁻¹ and the reticulocytes (day 64) was 0.8%. It also gave an MCHC (day 64) of 29 g/dL, an MCV (day 64) of 75 fL and an RBC count (day 64) of 5.6e+06 µL⁻¹. It also gave a WBC count (day 64) of 11000 µL⁻¹, a hematocrit (day 64) of 42% and a hemoglobin (day 64) of 12.1 g/dL. For the same substance, the basophils (day 71) was 0.4%, the eosinophils (day 71) was 1.1% and the lymphocytes (day 71) was 52%. For the same substance, the monocytes (day 71) was 3.7%, the neutrophils (day 71) was 42% and the platelet count (day 71) was 394000 µL⁻¹. The reticulocytes (day 71) was 1.0%, the MCHC (day 71) was 28 g/dL and the MCV (day 71) was 79 fL. It also gave an RBC count (day 71) of 5.6e+06 µL⁻¹, a WBC count (day 71) of 14000 µL⁻¹ and a hematocrit (day 71) of 44%. The hemoglobin (day 71) was 12.2 g/dL, the basophils (day 78) was 0.3% and the eosinophils (day 78) was 1.2%. It also gave a lymphocytes (day 78) of 46%, a monocytes (day 78) of 3.7% and a neutrophils (day 78) of 48%. The platelet count (day 78) was 366000 µL⁻¹, the reticulocytes (day 78) was 1.2% and the MCHC (day 78) was 30 g/dL. It also gave an MCV (day 78) of 74 fL, an RBC count (day 78) of 5.3e+06 µL⁻¹ and a WBC count (day 78) of 11000 µL⁻¹. It also gave a hematocrit (day 78) of 39%, a hemoglobin (day 78) of 11.9 g/dL and a basophils (day 85) of 0.4%. The eosinophils (day 85) was 1.6%, the lymphocytes (day 85) was 54% and the monocytes (day 85) was 3.7%. It also gave a neutrophils (day 85) of 39%, a platelet count (day 85) of 387000 µL⁻¹ and a reticulocytes (day 85) of 1.5%. The MCHC (day 85) was 30 g/dL, the MCV (day 85) was 74 fL and the RBC count (day 85) was 5.4e+06 µL⁻¹. The WBC count (day 85) was 12000 µL⁻¹, the hematocrit (day 85) was 40% and the hemoglobin (day 85) was 12.3 g/dL. For the same substance, the basophils (day −5) was 0.2%, the eosinophils (day −5) was 0.9% and the lymphocytes (day −5) was 44%. It also gave a monocytes (day −5) of 3.3%, a neutrophils (day −5) of 51% and a platelet count (day −5) of 456000 µL⁻¹. The reticulocytes (day −5) was 0.9%, the MCH (day −5) was 23 pg and the MCHC (day −5) was 29 g/dL. The MCV (day −5) was 79 fL, the RBC count (day −5) was 5.6e+06 µL⁻¹ and the WBC count (day −5) was 13000 µL⁻¹. The hematocrit (day −5) was 44%, the hemoglobin (day −5) was 13.0 g/dL and the basophils (day −14) was 0.2%. The eosinophils (day −14) was 1.0%, the lymphocytes (day −14) was 42% and the monocytes (day −14) was 2.8%. It also gave a neutrophils (day −14) of 53%, a platelet count (day −14) of 434000 µL⁻¹ and a reticulocytes (day −14) of 0.9%. The MCH (day −14) was 23 pg, the MCHC (day −14) was 29 g/dL and the MCV (day −14) was 79 fL. The RBC count (day −14) was 5.5e+06 µL⁻¹, the WBC count (day −14) was 13000 µL⁻¹ and the hematocrit (day −14) was 43%. The hemoglobin (day −14) was 12.7 g/dL.
